US5925369A, “Bis alkanoyl esters of carnitine having bactericidal, fungicidal and antiprotozoal activity” (priority 1996, dated 1999)
Like-named read-outs stand apart in the source and are kept apart here.

Columns and labels:
mouse scarified skin = experiment: Dermal tolerability after repeated treatments (10 days) on mouse scarified skin; type: in vivo, CD1 mice; conditions: 1% gel; for Cracking (C), mean score / Desquamation (D), mean score / Erythema (E), mean score: scale 0-3, 50 mg/day
Method: Male CD1 mice (C. RIVER), aged 6 weeks, were used (5 animals per group).
Substance formulations (1% of test article) were prepared in gel (Hydroxyethyl-cellulose, 2.5 gr.; Glycerin, 7.0 gr.; Propylene Glycol, 7.0 gr.; water up to 100 ml).
The central dorsal zone of the animals was first shaved, and then gently abraded with a scalpel blade. Treatment was performed 1 day following the dermal abrasion by administering 50 mg of each substance formulation once a day, for 10 consecutive days. The treated skin areas were examined at 5, 7, 9, and 11 days following scarification. The evaluation was based upon grading of the lesions as […] (E), DESQUAMATION (D), and CRACKING (C), according to the following scale:
The mean of the values of each parameter in the same animal group allowed us to evaluate the tissue damage provoked by the substance under examination.

anaerobic bacteria = experiment: MIC on anaerobic bacteria (all strains); type: cell-based; conditions: for MIC: 3 strains
Method: (§1) Bacteria from cultures in […].) medium on Petri dishes, grown overnight at 35° C. in an anaerobic jar, were resuspended in Brucella broth. The suspensions were adjusted to 1.0×10^8 cells/ml and distributed (0.2 ml/well) in microtiter plates (96-well U-bottomed plate). At the same time, 0.3 log dilutions of the substances are mixed with W. C. agar medium in four-sectioned Petri dishes, which are then seeded with the bacterial suspension by means of a multipoint inoculator (1.0×10^5 cells/spot). The plates are then incubated at 35° C. for 48 hours in an anaerobic jar) (See J. E. ROSENBLATT, Antimicrobial susceptibility testing of anaerobes, in Antibiotics in laboratory medicine. V. LORIAN Ed., II edition, 6, 159-180, Williams & Wilkins, Baltimora, Md 21202 U.S.A.).

Staph. warneri = experiment: MIC on Gram positive bacteria; type: cell-based; conditions: Staphylococcus warneri; Staph. warneri IDI 3482, clinical isolate (suppurative wound); read-out: Minimal Inhibitory Concentration
Method: (§2) Bacterial suspensions are prepared from an overnight culture in Mueller-Hinton broth and are adjusted, in the same medium, to a final concentration of 5.0×10^4 cells/ml in each well of a 96-well microtiter plate. Substance dilutions (0.3 log) in Mueller-Hinton broth are added to the suspensions in order to have a range of final concentrations from 0.19 to 100 mcg/ml.
(§3) Microtiters are then incubated at 37° C. for 18 hours. (See L. D. THRUPP, Susceptibility testing of antibiotics in liquid media, in: Antibiotics in laboratory medicine. V. LORIAN Ed., II edition, 4, 93-150, Williams & Wilkins, Baltimora, Md. 21202 U.S.A.).

[1] = system: S. faecalis (Strept. faecalis); experiment: MIC on Gram positive bacteria; type: cell-based; conditions: Enterococcus faecalis, read-out: Minimal Inhibitory Concentration
Method: as §2, §3

[2] = system: S. aureus (Staph. aureus); experiment: MIC on Gram positive bacteria; type: cell-based; conditions: Staphylococcus aureus, read-out: Minimal Inhibitory Concentration
Method: as §2, §3

Staph. capitis = experiment: MIC on Gram positive bacteria; type: cell-based; conditions: Staphylococcus capitis; Staph. capitis IDI 3502, clinical isolate (pustule, scalp); read-out: Minimal Inhibitory Concentration
Method: as §2, §3

B. pumilus = experiment: MIC on Gram positive bacteria; type: cell-based; conditions: Bacillus pumilus; B. pumilus CN 607, lab collection; read-out: Minimal Inhibitory Concentration
Method: as §2, §3

Staph. sp. = experiment: MIC on Gram positive bacteria; type: cell-based; conditions: Staph. sp. SG1 II, clinical isolate; read-out: Minimal Inhibitory Concentration
Method: as §2, §3

Strept. sp. = experiment: MIC on Gram positive bacteria; type: cell-based; conditions: Strept. sp. SG 7 II, clinical isolate; read-out: Minimal Inhibitory Concentration
Method: as §2, §3

Micrococcus sp. = experiment: MIC on Gram positive bacteria; type: cell-based; conditions: Micrococcus sp. IDI 3502, clinical isolate (pustule, scalp); read-out: Minimal Inhibitory Concentration
Method: as §2, §3

Staph. epider. = experiment: MIC on Gram positive bacteria; type: cell-based; conditions: Staph. epider. IDI 3482, clinical isolate (suppurative wound); read-out: Minimal Inhibitory Concentration
Method: as §2, §3

Eubacterium lentum = experiment: MIC on anaerobic bacteria; type: cell-based; conditions: Eggerthella lenta; Eubacterium lentum IDI 3502, anaerobic, Gram positive clinical isolate (suppurative wound); read-out: Minimal Inhibitory Concentration
Method: as §1

Propionibacterium acnes = experiment: MIC on anaerobic bacteria; type: cell-based; conditions: Cutibacterium acnes; Propionibacterium acnes IDI 3482, anaerobic, Gram positive clinical isolate (suppurative acne); read-out: Minimal Inhibitory Concentration
Method: as §1

Bacteroides fragilis = experiment: MIC on anaerobic bacteria; type: cell-based; conditions: ATCC25285; Bacteroides fragilis ATCC 25285, anaerobic, Gram negative, lab collection; read-out: Minimal Inhibitory Concentration
Method: as §1

[3] = S. faecalis 501, lab collection
[4] = S. faecalis 509, lab collection
[5] = Strept. faecalis IDI 3580, clinical isolate (ulcer)
[6] = S. aureus 306 MR, lab collection
[7] = Staph. aureus IDI 3530, clinical isolate (ulcer)
[8] = Staph. aureus IDI 3593, clinical isolate (ulcer)
[9] = Staph. aureus SG II, clinical isolate

SMILES | Cracking (C), mean score (mouse scarified skin; day +5) | Desquamation (D), mean score (mouse scarified skin; day +5) | Erythema (E), mean score (mouse scarified skin; day +5) | Cracking (C), mean score (mouse scarified skin; day +7) | Desquamation (D), mean score (mouse scarified skin; day +7) | Erythema (E), mean score (mouse scarified skin; day +7) | Cracking (C), mean score (mouse scarified skin; day +9) | Desquamation (D), mean score (mouse scarified skin; day +9) | Erythema (E), mean score (mouse scarified skin; day +9) | Cracking (C), mean score (mouse scarified skin; day +11) | Desquamation (D), mean score (mouse scarified skin; day +11) | Erythema (E), mean score (mouse scarified skin; day +11) | MIC (anaerobic bacteria) [µg/mL] | MIC (Staph. warneri) [µg/mL] | MIC [1, 3] [µg/mL] | MIC [1, 4] [µg/mL] | MIC [1, 5] [µg/mL] | MIC ([2]; S. aureus 303, lab collection) [µg/mL] | MIC [2, 6] [µg/mL] | MIC [2, 7] [µg/mL] | further results
CCCCCCCCCCCOC(=O)C[C@H](C[N+](C)(C)C)OC(=O)CC(C)C [ST 1103, isovaleryl L-carnitine undecyl ester methanesulfonate, reference compound] | 0 | 0.4 | 1.2 | 0 | 0.4 | 0.4 | 0 | 0 | 0 | 0 | 0 | 0 | 11.4 | 6.25 | 3.12 | 1.56 | 6.25 | 6.25 | 6.25 | 3.12 | MIC [2, 8]: 3.12 µg/mL; MIC [2, 9]: 3.12 µg/mL; MIC (Staph. capitis): 3.12 µg/mL; MIC (B. pumilus): 3.12 µg/mL; MIC (Staph. sp.): 6.25 µg/mL; MIC (Strept. sp.): 3.12 µg/mL; MIC (Micrococcus sp.): 3.12 µg/mL; MIC (Staph. epider.): 1.56 µg/mL; MIC (Eubacterium lentum): 3.12 µg/mL; MIC (Propionibacterium acnes): 6.25 µg/mL; MIC (Bacteroides fragilis): 25 µg/mL
CCCCCCCCCCC(=O)O[C@H](CC(=O)OCc1ccc(COC(=O)C[C@H](C[N+](C)(C)C)OC(=O)CCCCCCCCCC)cc1)C[N+](C)(C)C [ST 1226, bis(undecanoyl L-carnitine chloride)p-xylilene diester] | 0 | 0 | 0.2 | 0 | 0 | 0 | 0 | 0 | 0 | 0 | 0 | 0 | 8.33 | 3.12 | 3.12 | 1.56 | 6.25 | 3.12 | 3.12 | 3.12 | dermal tolerability compared with ST 1103 (mouse scarified skin; 10 days): better tolerated than ST1103; mean MIC value compared with ST 1103 (anaerobic bacteria): smaller than ST 1103; MIC [2, 8]: 3.12 µg/mL; MIC [2, 9]: 3.12 µg/mL; MIC (Staph. capitis): 1.56 µg/mL; MIC (B. pumilus): 1.56 µg/mL; MIC (Staph. sp.): 3.12 µg/mL; MIC (Strept. sp.): 3.12 µg/mL; MIC (Micrococcus sp.): 1.56 µg/mL; MIC (Staph. epider.): 3.12 µg/mL; MIC (Eubacterium lentum): 6.25 µg/mL; MIC (Propionibacterium acnes): 6.25 µg/mL; MIC (Bacteroides fragilis): 12.5 µg/mL
